Structures are written as SMILES.

This data set in a line: Stability of JAK3 covalent inhibitors in human whole blood.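 Further: parent compound remaining over incubation time quantified by LC-MS/MS as peak area ratio against an internal standard, using pooled K2-EDTA blood.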 To be noted: both sexes, whole blood, 37° C., read-out: Human blood stability t1/2. The data set is classed as in vitro ADME.
From the text: Stability of JAK3 Covalent Inhibitors in Rat and Human Whole Blood
Rat blood was collected from 3 male Sprague-Dawley rats (200-250 g, Charles River Laboratories) and pooled for each study. Human blood was collected from one male and one female healthy subjects at the Occupational Health & Wellness Center at Pfizer, Groton, CT and pooled for each study. Both rat and human blood was collected freshly into K2-EDTA tubes and kept on ice. An aliquot of the blood was transferred to microtubes and pre-warmed for 10 min at 37° C. using a heat block. […] An aliquot of the incubation mixture was removed at designated time points during the course of the incubation, mixed with an aliquot of acetonitrile containing an internal standard, vortexed and centrifuged. The resulting supernatants were removed and subjected to LC-MS/MS analyses to determine parent compound concentrations. Peak area ratios of the parent compound vs the internal standard were used to determine the % of parent compound remaining vs incubation time.
On to `C=CC(=O)N1C[C@H](Nc2ncnc3[nH]ccc23)C[C@@H](N(C)C)C1` [Example 88, 1-[(3R,5R)-3-(Dimethylamino)-5-(7H-pyrrolo[2,3-d]pyrimidin-4-ylamino)piperidin-1-yl]prop-2-en-1-one], for which the half-life at 1 μM came out at 1.23 h. Under `C=CC(=O)N1CCC(Nc2cnc3[nH]cc(C(=O)NC4CC(F)C4)c3n2)CC1` (centres unmarked) [Example 243, 2-[(1-acryloylpiperidin-4-yl)amino]-N-(3-fluorocyclobutyl)-5H-pyrrolo[2,3-b]pyrazine-7-carboxamide] stands greater than 6 h; under `C=CC(=O)N1CCC(Nc2cnc3[nH]cc(C(=O)N[C@@H](C)COC)c3n2)CC1` [Example 277, 2-[(1-acryloylpiperidin-4-yl)amino]-N-[(2S)-1-methoxypropan-2-yl]-5H-pyrrolo[2,3-b]pyrazine-7-carboxamide], greater than 6 h; under `C=CC(=O)N1CC[C@@H](Nc2cnc3[nH]cc(C(=O)NC(C)C)c3n2)[C@@H](OC)C1` [Example 302, 2-{[(3S,4R)-1-acryloyl-3-methoxypiperidin-4-yl]amino}-N-(propan-2-yl)-5H-pyrrolo[2,3-b]pyrazine-7-carboxamide], greater than 6 h. Under `C=CC(=O)N[C@H]1C[C@H](Nc2cnc3[nH]cc(C(=O)NC(C)C)c3n2)C1` [Example 198, 2-{[trans-3-(acryloylamino)cyclobutyl]amino}-N-(propan-2-yl)-5H-pyrrolo[2,3-b]pyrazine-7-carboxamide] stands greater than 6 h; under `C=CC(=O)N1CCCC(C)(Nc2ncnc3[nH]ccc23)C1` (centres unmarked) [Example 71, 1-(3-((7H-Pyrrolo[2,3-d]pyrimidin-4-yl)amino)-3-methylpiperidin-1-yl)prop-2-en-1-one], 3.82 h; under `C=CC(=O)N1CCC[C@@H](Nc2ncnc3[nH]cc(CC)c23)C1` [Example 44, 1-{(3R)-3-[(5-ethyl-7H-pyrrolo[2,3-d]pyrimidin-4-yl)amino]piperidin-1-yl}prop-2-en-1-one], 2.77 h. For `C=CC(=O)N1CCC(Nc2cnc3[nH]cc(C(=O)NCCOC)c3n2)CC1` [Example 275, 2-[(1-acryloylpiperidin-4-yl)amino]-N-(2-methoxyethyl)-5H-pyrrolo[2,3-b]pyrazine-7-carboxamide], the half-life at 1 μM was greater than 6 h. With `C=CC(=O)N1C[C@H](Nc2ncnc3[nH]ccc23)C[C@@H](OC)C1` [Example 77, 1-[(3R,5R)-3-Methoxy-5-(7H-pyrrolo[2,3-d]pyrimidin-4-ylamino)piperidin-1-yl]prop-2-en-1-one], the half-life at 1 μM is 4.2 h. In the case of `C=CC(=O)N1C[C@H](C)C[C@@H](Nc2ncnc3[nH]ccc23)C1` (racemic) [Example 65, Rac-1-((3R,5R)-3-((7H-Pyrrolo[2,3-d]pyrimidin-4-yl)amino)-5-methylpiperidin-1-yl)prop-2-en-1-one], the half-life at 1 μM was 4.45 h. As for `C=CC(=O)N1C[C@H](Nc2ncnc3[nH]ccc23)CC[C@@H]1CO` (single isomer, unassigned) [Example 7], the half-life at 1 μM is greater than 5.56 h. As to `C=CC(=O)N1CCC[C@@H](Nc2ncnc3[nH]cc(Cl)c23)C1` [Example 3, (R)-1-(3-((5-chloro-7H-pyrrolo[2,3-d]pyrimidin-4-yl)amino)piperidin-1-yl)prop-2-en-1-one], the half-life at 1 μM worked out at 3.2 h. As for `C=CC(=O)N1C[C@H](Nc2ncnc3[nH]ccc23)C[C@H](OC)C1` [Example 19, 1-((3R,5S)-3-((7H-Pyrrolo[2,3-d]pyrimidin-4-yl)amino)-5-methoxypiperidin-1-yl)prop-2-en-1-one], the half-life at 1 μM turned out to be 3.51 h. `C=CC(=O)N[C@H]1C[C@@H](Nc2cnc3[nH]cc(C(=O)NC(C)C)c3n2)C1` [Example 184, 2-{[cis-3-(acryloylamino)cyclobutyl]amino}-N-(propan-2-yl)-5H-pyrrolo[2,3-b]pyrazine-7-carboxamide]: the half-life at 1 μM was greater than 6 h.
